Data: the supplement of paper PMC10307832

What was measured:
Assay in all cases: relative viability (nuclei count vs DMSO), 5 days (fraction); higher = more cells survive
Decitabine + Tozasertib = compound: Nc1ncn([C@H]2C[C@H](O)[C@@H](CO)O2)c(=O)n1 [Decitabine] + Cc1cc(Nc2cc(N3CCN(C)CC3)nc(Sc3ccc(NC(=O)C4CC4)cc3)n2)n[nH]1 [Tozasertib] (partner 0.1 µM)
In short: (§1)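 After 5 days of treatment, lung cancer cells in 1536-well plates were fixed and stained in a single step (final 0.05% Triton X-100, 1% formaldehyde, 1 ug/ml Hoechst) and their nuclei counted on 4× images. Treatment had been applied by pin tool the day after seeding as one drug alone or as a fixed anchor-drug dose with five library-drug doses (not always all listed) in √10 steps. Relative viability is the nuclei count of treated wells divided by that of vehicle wells, and values are medians of duplicate plates.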

Halofuginone + OSI-027 = compound: O=C(C[C@H]1NCCC[C@@H]1O)Cn1cnc2cc(Br)c(Cl)cc2c1=O (racemic) [Halofuginone] + COc1cccc2cc(-c3nc([C@H]4CC[C@H](C(=O)O)CC4)n4ncnc(N)c34)[nH]c12 [OSI-027] (partner 0.5 µM)
In short: as §1

[1] = compound: O=C(C[C@H]1NCCC[C@@H]1O)Cn1cnc2cc(Br)c(Cl)cc2c1=O (racemic) [Halofuginone] + CS(=O)(=O)N1CCN(Cc2cc3nc(-c4cccc5[nH]ncc45)nc(N4CCOCC4)c3s2)CC1 [Pictilisib] (partner 1 µM)
In short: as §1

[2] = compound: O=C(C[C@H]1NCCC[C@@H]1O)Cn1cnc2cc(Br)c(Cl)cc2c1=O (racemic) [Halofuginone] + O=C(CCCCCCC(=O)Nc1ccccc1)NO [Vorinostat] (partner 1 µM)
In short: as §1

Cell Line | relative viability (Decitabine + Tozasertib; first compound 0.04 µM) | relative viability (Decitabine + Tozasertib; first compound 0.1265 µM) | relative viability (Decitabine + Tozasertib; first compound 0.4 µM) | relative viability (Decitabine + Tozasertib; first compound 1.265 µM) | relative viability (Decitabine + Tozasertib; first compound 4 µM) | relative viability (Halofuginone + OSI-027; first compound 0.001 µM) | relative viability (Halofuginone + OSI-027; first compound 0.003162 µM) | relative viability (Halofuginone + OSI-027; first compound 0.01 µM) | relative viability (Halofuginone + OSI-027; first compound 0.03162 µM) | relative viability (Halofuginone + OSI-027; first compound 0.1 µM) | relative viability ([1]; first compound 0.001 µM) | relative viability ([1]; first compound 0.003162 µM) | relative viability ([1]; first compound 0.01 µM) | relative viability ([1]; first compound 0.03162 µM) | relative viability ([1]; first compound 0.1 µM) | relative viability ([2]; first compound 0.001 µM) | relative viability ([2]; first compound 0.003162 µM) | relative viability ([2]; first compound 0.01 µM) | relative viability ([2]; first compound 0.03162 µM) | relative viability ([2]; first compound 0.1 µM)
NCI-H650 | 0.562 | 0.468 | 0.372 | 0.264 | 0.245 | 0.531 | 0.59 | 0.506 | 0.492 | 0.533 | 0.956 | 0.953 | 1.02 | 0.801 | 0.566 | 0.792 | 0.537 | 0.5 | 0.376 | 0.355
NCI-H661 | 0.345 | 0.33 | 0.341 | 0.318 | 0.348 | 0.776 | 0.685 | 0.679 | 0.611 | 0.499 | 0.496 | 0.355 | 0.365 | 0.408 | 0.444 | 0.773 | 0.803 | 0.682 | 0.549 | 0.491
NCI-H727 | 0.587 | 0.445 | 0.518 | 0.754 | 0.747 | 0.6 | 0.572 | 0.713 | 0.709 | 0.411 | 0.428 | 0.444 | 0.359 | 0.421 | 0.194 | 1.23 | 1.05 | 1.06 | 1.35 | 1.21
NCI-H838 | 0.196 | 0.236 | 0.188 | 0.191 | 0.176 | 0.39 | 0.414 | 0.413 | 0.339 | 0.16 | 0.478 | 0.481 | 0.42 | 0.37 | 0.134 | 0.752 | 0.746 | 0.703 | 0.507 | 0.16
NCI-H1355 | 0.315 | 0.334 | 0.263 | 0.224 | 0.224 | 0.41 | 0.423 | 0.393 | 0.463 | 0.303 | 0.444 | 0.424 | 0.458 | 0.501 | 0.376 | 0.688 | 0.648 | 0.596 | 0.663 | 0.561
NCI-H1395 | 0.549 | 0.517 | 0.487 | 0.445 | 0.453 | 0.665 | 0.656 | 0.789 | 0.594 | 0.683 | 0.625 | 0.674 | 0.86 | 0.578 | 0.54 | 0.741 | 0.682 | 0.656 | 0.603 | 0.49
NCI-H1437 | 0.358 | 0.363 | 0.281 | 0.201 | 0.17 | 0.905 | 0.933 | 0.871 | 0.847 | 0.717 | 0.429 | 0.536 | 0.414 | 0.402 | 0.24 | 0.965 | 0.886 | 0.772 | 0.747 | 0.501
NCI-H1650 | 0.247 | 0.297 | 0.289 | 0.169 | 0.193 | 0.653 | 0.634 | 0.639 | 0.774 | 0.141 | 0.28 | 0.658 | 0.469 | 0.495 | 0.136 | 0.688 | 0.595 | 0.522 | 0.566 | 0.366
